Measurements reported in ChEMBL document CHEMBL3822405, “Binding mode prediction of aplysiatoxin, a potent agonist of protein kinase C, through molecular simulation and structure-activity study on simplified analogs of the receptor-recognition domain” (Bioorg Med Chem, 2016).

biological target: Protein kinase C delta type (Mus musculus, UniProt P28867); assay: Inhibition of [3H]PDBu binding to PKCdelta C1B domain in CD-1 mouse brain cytosol incubated for 30 mins
Sequence (P28867 whole entry, the tested form may be a part): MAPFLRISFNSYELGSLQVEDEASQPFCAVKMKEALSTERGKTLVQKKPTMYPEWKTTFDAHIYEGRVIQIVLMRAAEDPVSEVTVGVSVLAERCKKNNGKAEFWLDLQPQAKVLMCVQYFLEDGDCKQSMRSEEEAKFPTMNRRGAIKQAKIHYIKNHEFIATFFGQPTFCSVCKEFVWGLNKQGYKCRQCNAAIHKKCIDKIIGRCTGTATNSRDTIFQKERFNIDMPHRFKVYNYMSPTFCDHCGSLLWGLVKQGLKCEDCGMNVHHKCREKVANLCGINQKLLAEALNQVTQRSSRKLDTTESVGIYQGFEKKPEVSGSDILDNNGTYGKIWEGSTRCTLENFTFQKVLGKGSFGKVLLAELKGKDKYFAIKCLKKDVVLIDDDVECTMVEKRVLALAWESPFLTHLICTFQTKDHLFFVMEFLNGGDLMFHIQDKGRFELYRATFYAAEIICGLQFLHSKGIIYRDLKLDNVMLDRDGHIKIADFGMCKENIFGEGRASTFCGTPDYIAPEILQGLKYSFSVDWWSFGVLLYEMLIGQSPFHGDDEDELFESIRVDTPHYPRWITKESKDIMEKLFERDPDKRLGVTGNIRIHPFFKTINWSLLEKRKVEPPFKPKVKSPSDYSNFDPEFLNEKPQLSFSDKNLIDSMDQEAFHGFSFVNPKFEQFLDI

| Ki | SMILES |
| --- | --- |
| 0.37 µM | CCCCCCCCOC(=O)C[C@@H](OC(=O)CCCCCCC)[C@@H](C)O |
| > 20 µM | CCCCCCCCC[C@@H](OC(=O)CCCCCCC)[C@@H](C)O |
| 2.9 µM | CCCCCCCCOC(=O)C[C@@H](OCCCCCCCC)[C@@H](C)O |
